Data as given in PMC7827406, “Structure–Activity Relationship (SAR) Study of Spautin-1 to Entail the Discovery of Novel NEK4 Inhibitors” (International Journal of Molecular Sciences, 2021).
Where two headings read alike, the source gives them in different places.

Legend:
Assay in all cases: biochemical
Set-up in all cases: Eurofins KinaseProfiler full panel at Km ATP, residual kinase activity (%) relative to DMSO
SRPK1(h) = SRPK1(h) (Homo sapiens, UniProt Q96SB4)
How it was run: (§1)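 Radiometric kinase activity assays were run with ATP at Km and compounds at 10 µM, and remaining activity (%) was reported. A separate competitive binding screen measured DNA-tagged kinase displaced from immobilized active-site ligands by qPCR, giving percent kinase still bound at 10 µM compound in DMSO.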

GRK1(h) = target: T1, GRK1(h) (Homo sapiens, UniProt Q15835)
T1 sequence (Q15835 1-563): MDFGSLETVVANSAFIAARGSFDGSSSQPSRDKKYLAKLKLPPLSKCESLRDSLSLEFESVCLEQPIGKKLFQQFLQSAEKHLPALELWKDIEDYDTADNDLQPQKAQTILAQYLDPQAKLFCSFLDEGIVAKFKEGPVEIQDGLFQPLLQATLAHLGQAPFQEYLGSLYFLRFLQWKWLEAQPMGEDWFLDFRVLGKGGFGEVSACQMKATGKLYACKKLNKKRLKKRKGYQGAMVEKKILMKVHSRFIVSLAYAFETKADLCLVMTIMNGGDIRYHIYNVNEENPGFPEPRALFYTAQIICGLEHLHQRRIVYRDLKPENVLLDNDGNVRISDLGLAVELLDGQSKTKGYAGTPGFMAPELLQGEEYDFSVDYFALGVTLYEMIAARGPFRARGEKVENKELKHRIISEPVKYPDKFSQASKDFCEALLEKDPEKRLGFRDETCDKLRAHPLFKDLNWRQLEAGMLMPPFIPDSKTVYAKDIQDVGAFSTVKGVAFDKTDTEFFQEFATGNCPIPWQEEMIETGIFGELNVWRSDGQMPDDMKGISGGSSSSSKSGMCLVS
How it was run: as §1

Ros(h) = target: T2, Ros(h) (Homo sapiens, UniProt P08922)
T2 construct: gene ROS1
How it was run: as §1

Ron(h) = target: T3, Ron(h) (Homo sapiens, UniProt Q04912)
T3 construct: gene MST1R
How it was run: as §1

Fes(h) = Fes(h) (Homo sapiens, UniProt P07332)
How it was run: as §1

A-Raf(h) = target: T4, A-Raf(h) (Homo sapiens, UniProt P10398)
T4 construct: gene ARAF
T4 sequence (P10398 1-606): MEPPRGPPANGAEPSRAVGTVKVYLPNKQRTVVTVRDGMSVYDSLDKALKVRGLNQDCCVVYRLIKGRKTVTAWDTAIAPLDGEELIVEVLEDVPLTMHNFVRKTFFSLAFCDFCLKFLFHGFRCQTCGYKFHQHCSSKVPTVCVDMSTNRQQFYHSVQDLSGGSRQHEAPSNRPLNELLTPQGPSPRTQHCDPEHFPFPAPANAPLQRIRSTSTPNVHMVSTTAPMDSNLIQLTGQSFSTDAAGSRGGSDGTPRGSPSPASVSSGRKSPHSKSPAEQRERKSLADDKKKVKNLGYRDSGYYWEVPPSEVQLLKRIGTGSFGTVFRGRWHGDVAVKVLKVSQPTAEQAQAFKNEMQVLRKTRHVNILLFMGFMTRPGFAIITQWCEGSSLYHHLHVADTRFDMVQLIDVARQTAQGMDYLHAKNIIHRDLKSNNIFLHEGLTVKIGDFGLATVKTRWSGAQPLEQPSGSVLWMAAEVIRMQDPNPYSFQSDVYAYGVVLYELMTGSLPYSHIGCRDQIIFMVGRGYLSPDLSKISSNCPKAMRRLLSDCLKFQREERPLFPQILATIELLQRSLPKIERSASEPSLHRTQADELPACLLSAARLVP
How it was run: as §1

HRI(h) = target: T5, HRI(h) (Homo sapiens, UniProt Q9BQI3)
T5 construct: gene EIF2AK1
How it was run: as §1

p70S6K(h) = target: T6, p70S6K(h) (Homo sapiens, UniProt P23443)
T6 construct: gene RPS6KB1
How it was run: as §1

PDGFRβ(h) = target: T7, PDGFRβ(h) (Homo sapiens, UniProt P09619)
T7 construct: gene PDGFRB
How it was run: as §1

[1] = read-out: Residual activity (%) 5ay
[2] = read-out: Residual activity (%) Spautin-1 5aa
[3] = read-out: Residual activity (%) 5at
[4] = read-out: Residual activity (%) 5as

T2 sequence (P08922 whole entry): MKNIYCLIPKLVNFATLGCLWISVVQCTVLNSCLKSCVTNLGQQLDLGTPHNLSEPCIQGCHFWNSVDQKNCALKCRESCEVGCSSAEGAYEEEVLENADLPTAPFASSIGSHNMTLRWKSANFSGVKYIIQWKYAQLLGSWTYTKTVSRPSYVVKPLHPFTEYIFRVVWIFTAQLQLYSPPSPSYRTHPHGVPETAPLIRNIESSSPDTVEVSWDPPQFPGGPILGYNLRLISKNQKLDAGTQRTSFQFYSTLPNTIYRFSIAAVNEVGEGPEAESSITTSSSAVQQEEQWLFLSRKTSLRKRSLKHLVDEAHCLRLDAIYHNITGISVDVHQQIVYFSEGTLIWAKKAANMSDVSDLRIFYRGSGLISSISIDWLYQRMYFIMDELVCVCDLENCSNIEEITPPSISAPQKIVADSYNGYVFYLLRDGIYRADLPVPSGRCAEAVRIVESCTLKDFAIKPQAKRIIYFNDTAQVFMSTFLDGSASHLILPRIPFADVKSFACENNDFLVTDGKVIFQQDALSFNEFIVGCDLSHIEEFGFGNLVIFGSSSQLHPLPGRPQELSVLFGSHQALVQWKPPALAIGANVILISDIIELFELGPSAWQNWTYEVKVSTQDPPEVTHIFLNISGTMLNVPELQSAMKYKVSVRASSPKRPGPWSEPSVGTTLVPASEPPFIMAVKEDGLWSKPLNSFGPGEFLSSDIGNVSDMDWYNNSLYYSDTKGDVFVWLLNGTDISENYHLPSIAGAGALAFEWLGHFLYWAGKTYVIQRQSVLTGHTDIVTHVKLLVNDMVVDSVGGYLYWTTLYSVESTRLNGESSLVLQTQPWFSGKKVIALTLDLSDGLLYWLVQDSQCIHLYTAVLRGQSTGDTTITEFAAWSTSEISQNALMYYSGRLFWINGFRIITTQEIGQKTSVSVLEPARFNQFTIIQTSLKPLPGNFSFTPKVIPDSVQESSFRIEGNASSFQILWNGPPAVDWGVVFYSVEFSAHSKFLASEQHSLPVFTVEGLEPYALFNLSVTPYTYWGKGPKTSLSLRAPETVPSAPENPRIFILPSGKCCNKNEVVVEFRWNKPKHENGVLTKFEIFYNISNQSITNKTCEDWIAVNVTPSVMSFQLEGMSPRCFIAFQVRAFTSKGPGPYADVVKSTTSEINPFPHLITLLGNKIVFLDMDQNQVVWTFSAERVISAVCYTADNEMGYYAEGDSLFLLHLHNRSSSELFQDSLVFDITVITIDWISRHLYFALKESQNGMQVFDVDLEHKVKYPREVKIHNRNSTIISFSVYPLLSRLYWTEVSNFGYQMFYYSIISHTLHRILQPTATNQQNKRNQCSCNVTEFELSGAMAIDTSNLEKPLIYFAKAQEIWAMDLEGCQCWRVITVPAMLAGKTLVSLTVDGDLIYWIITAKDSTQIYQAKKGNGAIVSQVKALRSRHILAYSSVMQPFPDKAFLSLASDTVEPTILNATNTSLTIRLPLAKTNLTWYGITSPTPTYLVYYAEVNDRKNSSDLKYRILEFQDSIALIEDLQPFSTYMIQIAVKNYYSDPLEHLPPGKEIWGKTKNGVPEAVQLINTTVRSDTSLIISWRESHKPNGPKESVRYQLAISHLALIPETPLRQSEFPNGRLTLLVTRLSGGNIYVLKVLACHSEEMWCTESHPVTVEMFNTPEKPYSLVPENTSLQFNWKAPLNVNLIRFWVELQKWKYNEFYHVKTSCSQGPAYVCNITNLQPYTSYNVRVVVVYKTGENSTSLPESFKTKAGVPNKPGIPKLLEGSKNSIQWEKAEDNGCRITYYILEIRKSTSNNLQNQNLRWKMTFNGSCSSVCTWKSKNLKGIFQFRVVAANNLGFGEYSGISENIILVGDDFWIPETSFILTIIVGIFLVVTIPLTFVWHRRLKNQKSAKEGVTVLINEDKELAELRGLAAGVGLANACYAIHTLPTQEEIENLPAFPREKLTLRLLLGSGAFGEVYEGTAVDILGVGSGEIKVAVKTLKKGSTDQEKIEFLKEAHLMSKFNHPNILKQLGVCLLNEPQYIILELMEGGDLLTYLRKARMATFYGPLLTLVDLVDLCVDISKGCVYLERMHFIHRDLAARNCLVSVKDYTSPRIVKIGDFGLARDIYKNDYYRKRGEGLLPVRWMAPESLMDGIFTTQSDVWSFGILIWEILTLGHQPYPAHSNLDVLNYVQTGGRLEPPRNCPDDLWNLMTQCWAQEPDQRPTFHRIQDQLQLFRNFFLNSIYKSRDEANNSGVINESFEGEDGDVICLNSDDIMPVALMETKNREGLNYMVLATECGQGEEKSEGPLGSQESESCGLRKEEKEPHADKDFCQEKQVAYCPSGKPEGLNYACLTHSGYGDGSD
T3 sequence (Q04912 whole entry): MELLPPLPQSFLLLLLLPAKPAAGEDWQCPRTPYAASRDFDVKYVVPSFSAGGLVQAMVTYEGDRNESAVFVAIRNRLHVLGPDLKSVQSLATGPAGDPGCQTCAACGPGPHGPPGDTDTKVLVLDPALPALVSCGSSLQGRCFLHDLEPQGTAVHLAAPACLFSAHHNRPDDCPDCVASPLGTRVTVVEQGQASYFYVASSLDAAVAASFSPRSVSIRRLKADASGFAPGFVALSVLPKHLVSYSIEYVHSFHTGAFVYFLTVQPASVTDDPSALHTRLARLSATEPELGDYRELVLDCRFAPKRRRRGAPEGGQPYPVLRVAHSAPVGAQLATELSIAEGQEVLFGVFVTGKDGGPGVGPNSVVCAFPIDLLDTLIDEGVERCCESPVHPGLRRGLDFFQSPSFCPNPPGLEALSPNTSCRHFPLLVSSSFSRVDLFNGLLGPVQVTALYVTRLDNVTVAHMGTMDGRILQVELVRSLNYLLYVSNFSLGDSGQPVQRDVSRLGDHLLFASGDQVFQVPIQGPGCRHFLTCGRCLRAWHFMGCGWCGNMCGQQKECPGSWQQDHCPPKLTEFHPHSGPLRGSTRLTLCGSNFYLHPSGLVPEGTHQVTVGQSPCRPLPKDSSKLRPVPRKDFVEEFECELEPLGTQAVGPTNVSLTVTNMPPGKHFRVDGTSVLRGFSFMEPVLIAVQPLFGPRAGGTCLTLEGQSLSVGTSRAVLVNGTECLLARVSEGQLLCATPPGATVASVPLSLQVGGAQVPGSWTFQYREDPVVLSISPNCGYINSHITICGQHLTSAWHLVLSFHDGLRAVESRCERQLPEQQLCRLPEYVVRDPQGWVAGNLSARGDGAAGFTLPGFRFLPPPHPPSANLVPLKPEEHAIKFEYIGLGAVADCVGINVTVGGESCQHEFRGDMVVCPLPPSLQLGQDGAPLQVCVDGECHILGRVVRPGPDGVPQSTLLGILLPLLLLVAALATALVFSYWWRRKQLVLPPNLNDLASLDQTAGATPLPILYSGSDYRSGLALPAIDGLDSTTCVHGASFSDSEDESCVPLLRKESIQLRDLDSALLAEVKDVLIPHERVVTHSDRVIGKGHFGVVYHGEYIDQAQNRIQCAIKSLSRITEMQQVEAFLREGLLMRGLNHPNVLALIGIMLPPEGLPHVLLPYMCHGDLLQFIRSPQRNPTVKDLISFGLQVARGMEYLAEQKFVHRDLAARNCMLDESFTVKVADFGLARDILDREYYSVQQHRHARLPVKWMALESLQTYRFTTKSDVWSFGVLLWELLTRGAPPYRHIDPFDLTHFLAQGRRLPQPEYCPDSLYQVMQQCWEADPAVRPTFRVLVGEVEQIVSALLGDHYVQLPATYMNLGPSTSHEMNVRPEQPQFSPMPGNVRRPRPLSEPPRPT
T7 sequence (P09619 whole entry): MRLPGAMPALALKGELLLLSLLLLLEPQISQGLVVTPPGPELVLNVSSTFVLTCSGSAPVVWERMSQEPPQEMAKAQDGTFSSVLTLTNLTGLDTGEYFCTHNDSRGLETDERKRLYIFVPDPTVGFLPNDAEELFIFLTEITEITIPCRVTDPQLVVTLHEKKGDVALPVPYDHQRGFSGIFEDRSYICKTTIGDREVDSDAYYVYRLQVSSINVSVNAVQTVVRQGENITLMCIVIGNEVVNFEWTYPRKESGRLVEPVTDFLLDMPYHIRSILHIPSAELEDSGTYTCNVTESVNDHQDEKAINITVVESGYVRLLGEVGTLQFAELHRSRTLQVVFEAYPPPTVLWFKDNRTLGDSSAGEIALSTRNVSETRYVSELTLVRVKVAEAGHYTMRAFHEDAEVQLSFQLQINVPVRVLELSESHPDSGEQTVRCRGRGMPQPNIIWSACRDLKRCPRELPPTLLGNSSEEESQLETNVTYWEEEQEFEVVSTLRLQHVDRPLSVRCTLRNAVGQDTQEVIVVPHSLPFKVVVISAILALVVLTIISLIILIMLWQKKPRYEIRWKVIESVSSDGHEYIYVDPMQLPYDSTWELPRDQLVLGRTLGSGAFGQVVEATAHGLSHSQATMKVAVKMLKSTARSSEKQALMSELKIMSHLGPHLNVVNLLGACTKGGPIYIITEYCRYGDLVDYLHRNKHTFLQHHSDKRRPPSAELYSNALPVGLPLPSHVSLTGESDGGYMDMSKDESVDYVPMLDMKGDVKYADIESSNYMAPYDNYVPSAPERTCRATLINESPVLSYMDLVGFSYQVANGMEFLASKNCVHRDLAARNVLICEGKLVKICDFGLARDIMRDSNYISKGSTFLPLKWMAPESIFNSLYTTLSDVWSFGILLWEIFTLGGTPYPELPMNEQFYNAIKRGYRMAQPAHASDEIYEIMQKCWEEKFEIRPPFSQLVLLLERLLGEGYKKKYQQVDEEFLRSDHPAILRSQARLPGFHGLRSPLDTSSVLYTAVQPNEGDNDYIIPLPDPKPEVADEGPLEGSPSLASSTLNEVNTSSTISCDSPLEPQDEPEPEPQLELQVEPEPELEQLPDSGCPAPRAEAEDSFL

For `COc1ccc2ncnc(Nc3cccc(F)c3)c2c1` [5ay, N-(3-Fluorophenyl)-6-Methoxy-4-Quinazolinamine], the remaining activity at 10 µM (SRPK1(h); [1]) was 116%, the remaining activity at 10 µM (GRK1(h); [1]) was 88% and the remaining activity at 10 µM (Ros(h); [1]) was 101%. It also gave a remaining activity at 10 µM (Ron(h); [1]) of 88%, a remaining activity at 10 µM (Fes(h); [1]) of 93% and a remaining activity at 10 µM (A-Raf(h); [1]) of 100%. For the same molecule, the remaining activity at 10 µM (HRI(h); [1]) was 99%, the remaining activity at 10 µM (p70S6K(h); [1]) was 76% and the remaining activity at 10 µM (PDGFRβ(h); [1]) was 113%.
`Fc1ccc(CNc2ncnc3ccc(F)cc23)cc1` [5aa, 6-Fluoro-N-(4-fluorobenzyl)-4-Quinazolinamine] was tested, and the remaining activity at 10 µM (SRPK1(h); [2]) was 121%, the remaining activity at 10 µM (GRK1(h); [2]) was 101% and the remaining activity at 10 µM (Ros(h); [2]) was 95%. For the same molecule, the remaining activity at 10 µM (Ron(h); [2]) was 98%, the remaining activity at 10 µM (Fes(h); [2]) was 91% and the remaining activity at 10 µM (A-Raf(h); [2]) was 103%. For the same molecule, the remaining activity at 10 µM (HRI(h); [2]) was 96%, the remaining activity at 10 µM (p70S6K(h); [2]) was 91% and the remaining activity at 10 µM (PDGFRβ(h); [2]) was 97%.
In the case of `Fc1ccc2ncnc(NCCc3ccc(Cl)cc3)c2c1` [5at, N-[2-(4-Chlorophenyl)Ethyl]-6-Fluoro-4-Quinazolinamine], the remaining activity at 10 µM (SRPK1(h); [3]) is reported as 108%, the remaining activity at 10 µM (GRK1(h); [3]) is reported as 81% and the remaining activity at 10 µM (Ros(h); [3]) is reported as 105%. For the same molecule, the remaining activity at 10 µM (Ron(h); [3]) was 101%, the remaining activity at 10 µM (Fes(h); [3]) was 81% and the remaining activity at 10 µM (A-Raf(h); [3]) was 108%. The remaining activity at 10 µM (HRI(h); [3]) was 101%, the remaining activity at 10 µM (p70S6K(h); [3]) was 83% and the remaining activity at 10 µM (PDGFRβ(h); [3]) was 109%.
`Fc1ccc(CCNc2ncnc3ccc(F)cc23)cc1` [5as, 6-Fluoro-N-[2-(4-Fluorophenyl)Ethyl]-4-Quinazolinamine] gave a remaining activity at 10 µM (SRPK1(h); [4]) of 112%, a remaining activity at 10 µM (GRK1(h); [4]) of 79% and a remaining activity at 10 µM (Ros(h); [4]) of 101%. It also gave a remaining activity at 10 µM (Ron(h); [4]) of 109%, a remaining activity at 10 µM (Fes(h); [4]) of 92% and a remaining activity at 10 µM (A-Raf(h); [4]) of 106%. The remaining activity at 10 µM (HRI(h); [4]) was 99%, the remaining activity at 10 µM (p70S6K(h); [4]) was 81% and the remaining activity at 10 µM (PDGFRβ(h); [4]) was 104%.
